The source of these data is ChEMBL document CHEMBL4118246, “Discovery and evaluation of 3,5-disubstituted indole derivatives as Pim kinase inhibitors” (Bioorg Med Chem Lett, 2018).

The target of assay [1] is Serine/threonine-protein kinase pim-3 (Homo sapiens, UniProt Q86V86). Kind of assay: Inhibition of PIM3 (unknown origin).
Assay [2] has as its system HepG2. Kind of assay: Cell cycle arrest in human HepG2 cells assessed as accumulation at S phase at 10 uM by FACS analysis relative to control. The assay is classed as functional.
In assay [3] the test system is HepG2. Briefly: Cell cycle arrest in human HepG2 cells assessed as accumulation at S phase at 1 uM by FACS analysis relative to control. In kind it is functional. For orientation: Flow cytometry measures light scatter and fluorescence of single cells or particles in a stream.
The test system of assay [4] is HepG2. Kind of assay: Cell cycle arrest in human HepG2 cells assessed as accumulation at G0/G1 phase at 10 uM by FACS analysis relative to control. In kind it is functional.
Assay [5] deals with Serine/threonine-protein kinase pim-1 (Homo sapiens, UniProt P11309).
Description: Inhibition of PIM1 (unknown origin)
The test system of assay [6] is HepG2. Briefly: Cell cycle arrest in human HepG2 cells assessed as accumulation at G2/M phase at 1 uM by FACS analysis relative to control. The assay is classed as functional.
In assay [7] the test system is HepG2. Briefly: Cell cycle arrest in human HepG2 cells assessed as accumulation at sub-G1 phase at 1 uM by FACS analysis relative to control. The assay is classed as functional.
The test system of assay [8] is HepG2. Briefly: Cell cycle arrest in human HepG2 cells assessed as accumulation at sub-G1 phase at 10 uM by FACS analysis relative to control. In kind it is functional.
A further assay concerns MV4-11. Briefly: Growth inhibition of human MV4-11 cells. In kind it is functional, cell-based.
Assay [9] concerns the target Serine/threonine-protein kinase pim-2 (Homo sapiens, UniProt Q9P1W9). Kind of assay: Inhibition of PIM2 (unknown origin).
The test system of assay [10] is HepG2. Kind of assay: Cell cycle arrest in human HepG2 cells assessed as accumulation at G0/G1 phase at 1 uM by FACS analysis relative to control. The assay is classed as functional.
Assay [11] relates to HepG2. Briefly: Cell cycle arrest in human HepG2 cells assessed as accumulation at G2/M phase at 10 uM by FACS analysis relative to control. The assay is classed as functional.

pIC50: −log10 of the molar value. A value given as a limit tells only on which side of the number the result lay.

By pIC50 is commonly meant the IC50 on a negative log10 scale, so that one unit is a factor of ten. A lower pIC50 goes with a large IC50.

Serine/threonine-protein kinase pim-2, sequence (Q9P1W9 whole entry): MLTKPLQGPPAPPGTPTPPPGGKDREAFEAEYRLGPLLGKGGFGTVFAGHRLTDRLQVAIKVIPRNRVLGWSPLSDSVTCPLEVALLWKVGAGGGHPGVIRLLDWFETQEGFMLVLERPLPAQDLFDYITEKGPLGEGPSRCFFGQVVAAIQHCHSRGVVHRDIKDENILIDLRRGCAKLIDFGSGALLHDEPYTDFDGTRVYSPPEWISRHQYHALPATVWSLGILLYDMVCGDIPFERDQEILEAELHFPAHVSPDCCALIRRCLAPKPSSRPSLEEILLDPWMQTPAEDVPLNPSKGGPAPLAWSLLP
Serine/threonine-protein kinase pim-1, sequence (P11309 whole entry): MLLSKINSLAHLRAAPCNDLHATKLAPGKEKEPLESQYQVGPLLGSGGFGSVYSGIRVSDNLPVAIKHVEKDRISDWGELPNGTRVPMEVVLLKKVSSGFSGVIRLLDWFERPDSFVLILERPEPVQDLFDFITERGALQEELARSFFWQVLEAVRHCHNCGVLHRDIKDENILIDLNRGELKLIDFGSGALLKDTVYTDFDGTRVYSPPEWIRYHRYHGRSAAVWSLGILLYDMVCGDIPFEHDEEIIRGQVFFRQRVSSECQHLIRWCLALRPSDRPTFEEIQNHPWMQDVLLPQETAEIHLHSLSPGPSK

Consider `CN(C)CCNc1cncc(-c2ccc3[nH]cc(-c4ccc(S(N)(=O)=O)cc4)c3c2)n1`, for which the pIC50 in [1] was 7.59; in assay [5] it was 8.05; in the assay with MV4-11 it was 5.17; in assay [9], 6.15. In addition, the Activity with HepG2 [2] was 19.8%; in the assay on HepG2 [3], 21.3%; with HepG2 [4], 58%; in the assay with HepG2 [6], 15.3%; in the assay with HepG2 [7], 2.4%; in the assay on HepG2 [8] it was 2.4%. The Activity in the assay with HepG2 [10] turned out to be 55.5%; in the assay with HepG2 [11] it was 14.6%.
On to `OCCc1cncc(-c2ccc3[nH]cc(-c4ccccc4F)c3c2)n1`, for which the negative logarithm of the IC50 (pIC50) in [1] is 5.52; in [5] it was 6.05; in assay [9], below 5.00.
Consider `Cc1ccc(-c2c[nH]c3ccc(-c4cncc(NCCN(C)C)n4)cc23)cc1`, for which the results for the pIC50 in assay [1], in assay [5] and in [9] were 7.48, 7.72 and 5.74, respectively.
The matching figures for `Cc1cccc(-c2c[nH]c3ccc(-c4cncc(NCCN(C)C)n4)cc23)c1`: 7.54, 7.68 and 6.08.
In the case of `CN1CCC(CNc2ccc3ncc(-c4cccc(OC(F)(F)F)c4)n3n2)CC1` [SGI-1776], the Activity in the assay with HepG2 [2] worked out at 8.3%; in the assay with HepG2 [3], 19.8%; with HepG2 [4], 36.9%; in the assay with HepG2 [6] it was 13.3%; with HepG2 [7] it was 16%; in the assay with HepG2 [8] it was 52.3%. For the same molecule, the Activity in the assay on HepG2 [10] was determined as 44.2%; with HepG2 [11], 1.9%. Moreover, in the assay with MV4-11, the pIC50 is 7.52.
As for `CN(C)CCNc1cncc(-c2ccc3[nH]cc(-c4ccc(F)c(C(F)(F)F)c4)c3c2)n1`, the pIC50 was 6.74 in assay [1], 6.84 in [5] and 5.36 in assay [9].
The matching figures for `NCCNc1cncc(-c2ccc3[nH]cc(-c4ccccc4F)c3c2)n1`: 8.15, 8.30 and 6.64.
For `CN(C)CCNc1cncc(-c2ccc3[nH]cc(-c4cc(C(=O)O)ccc4F)c3c2)n1`, in that order: 6.86, 7.64 and 5.85.
Turning to `CN(C)CCNc1cncc(-c2ccc3[nH]cc(-c4cccc(C(F)(F)F)c4)c3c2)n1`, the pIC50 was 7.16 in [1], 7.46 in [5] and 5.65 in assay [9].
For `CN(C)CCNc1cncc(-c2ccc3[nH]cc(-c4cccc(OC(F)(F)F)c4)c3c2)n1`, in that order: 6.89, 6.87 and 5.56.
For `CN(C)CCNc1cncc(-c2ccc3[nH]cc(-c4ccc(C(F)(F)F)cc4)c3c2)n1`, in that order: 6.61, 7.17 and 5.24.
The matching figures for `Fc1ccccc1-c1c[nH]c2ccc(-c3cncc(N4CCCNCC4)n3)cc12`: 7.80, 7.92 and 6.27.
As to `CN(C)CCOc1cncc(-c2ccc3[nH]cc(-c4ccc(C(F)(F)F)cc4)c3c2)n1`, the pIC50 in assay [1] was 6.06; in assay [5], 6.35; in assay [9] it was below 5.00.
Take `CCOc1cncc(-c2ccc3[nH]cc(-c4ccccc4)c3c2)n1`: the pIC50 in assay [1], in [5] and in assay [9] was below 5.00 in each case.
Consider `CN(C)CCNc1cncc(-c2ccc3[nH]cc(-c4ccnc(N)n4)c3c2)n1`, for which the values for the pIC50 in assay [1] and in [5] were 8.15 and 8.52, respectively.
Take `COc1ccc(-c2c[nH]c3ccc(-c4cncc(NCCN(C)C)n4)cc23)cc1`: the pIC50 in assay [1] was 7.52; in [5], 8.05; in assay [9], 6.06.
For `CN(C)CCCN(C)c1cncc(-c2ccc3[nH]cc(-c4ccc(C(F)(F)F)cc4)c3c2)n1`, in that order: 6.32, 6.68 and below 5.00.
Take `CN(C)CCNc1cncc(-c2ccc3[nH]cc(-c4cc(C#N)ccc4F)c3c2)n1`: the pIC50 in [1] was 7.74; in assay [5], 8.05; with MV4-11, 5.54; in assay [9] it was 6.08. Further, the Activity in the assay with HepG2 [2] is 28.3%; with HepG2 [3], 20.6%; in the assay with HepG2 [4], 37.6%; with HepG2 [6] it was 17%; in the assay on HepG2 [7], 2.4%; in the assay on HepG2 [8], 5.7%. Moreover, the Activity with HepG2 [10] is listed as 53.5%; with HepG2 [11], 19%.
As for `FC(F)(F)c1ccc(-c2c[nH]c3ccc(-c4cncc(OC5CCNCC5)n4)cc23)cc1`, the pIC50 in assay [1] is 6.69; in assay [5], 6.73; in assay [9], 5.36.
For `O=C1NCCN1c1cncc(-c2ccc3[nH]cc(-c4ccccc4F)c3c2)n1`, in that order: 6.56, 6.59 and below 5.00.
The matching figures for `CN(C)CCNc1cncc(-c2ccc3[nH]cc(-c4ccc(C#N)cc4)c3c2)n1`: 6.81, 7.48 and 5.60.
In turn, `Brc1ccc2[nH]cc(-c3ccccc3)c2c1` had a pIC50 in assay [5] below 5.00.
For `CN(C)CCNc1cncc(-c2ccc3[nH]cc(-c4ccc(N)c(C#N)c4)c3c2)n1`, the pIC50 was 8.00 in assay [1], 8.30 in assay [5], 6.10 with MV4-11 and 6.59 in assay [9]. In addition, the Activity in the assay with HepG2 [2] is on record as 23.1%; in the assay with HepG2 [3] it was 21.7%; with HepG2 [4] it was 53%; in the assay with HepG2 [6] it was 16.5%; with HepG2 [7] it was 3.4%; in the assay on HepG2 [8], 2.6%. The Activity in the assay on HepG2 [10] is 52.3%; with HepG2 [11], 15.8%.
With `CN(C)CCNc1cncc(-c2ccc3[nH]cc(-c4ccc(N)cc4)c3c2)n1`, the negative logarithm of the IC50 (pIC50) in [1] is 7.54; in assay [5] it was 8.10; in assay [9] it was 6.34.
With `FC(F)(F)c1ccc(-c2c[nH]c3ccc(-c4cncc(N5CCNCC5)n4)cc23)cc1`, the pIC50 in assay [1] is 6.62; in [5], 6.59; in assay [9], 5.67.
`CN(C)CCNc1cncc(-c2ccc3[nH]cc(-c4ccc(OC(F)(F)F)cc4)c3c2)n1`: the pIC50 in assay [1] was 6.63; in [5], 7.02; in [9] it was 5.35.
For `CN(C)CCNc1cncc(-c2ccc3[nH]cc(-c4ccccc4F)c3c2)n1`, the pIC50 is 8.00 in assay [1], 8.15 in [5] and 6.43 in assay [9].
For `CC(=O)c1ccc(F)c(-c2c[nH]c3ccc(-c4cncc(NCCN(C)C)n4)cc23)c1`, the pIC50 in assay [1] is 8.15; in [5], 8.52; in the assay with MV4-11 it was 5.20; in assay [9] it was 6.66.
Take `CN(C)CCNc1cncc(-c2ccc3[nH]cc(-c4cccc(C#N)c4)c3c2)n1`: the pIC50 in assay [1] is 7.22; in assay [5], 7.68; in [9] it was 6.11.
For `CN(C)CCCNc1cncc(-c2ccc3[nH]cc(-c4ccc(C(F)(F)F)cc4)c3c2)n1`, in that order: 6.43, 6.71 and below 5.00.
For `COc1cccc(-c2c[nH]c3ccc(-c4cncc(NCCN(C)C)n4)cc23)c1`, in that order: 7.72, 8.15 and 6.25.
The matching figures for `CN(C)CCN(C)c1cncc(-c2ccc3[nH]cc(-c4ccc(C(F)(F)F)cc4)c3c2)n1`: 6.40, 6.50 and below 5.00.
As for `CN(C)CCNc1cncc(-c2ccc3[nH]cc(-c4cccc(N)c4)c3c2)n1`, the pIC50 in assay [1] is 7.40; in [5], 7.72; in [9], 6.09.
In the case of `NC1CCCN(c2cncc(-c3ccc4[nH]cc(-c5ccccc5F)c4c3)n2)C1` (configuration not stated), the pIC50 was 7.96 in assay [1], 8.15 in [5] and 5.86 in assay [9].
For `CN(C)CCNc1cncc(-c2ccc3[nH]cc(-c4cccc(F)c4)c3c2)n1`, in that order: 7.46, 7.52 and 6.19.
The matching figures for `CN(C)CCCOc1cncc(-c2ccc3[nH]cc(-c4ccc(C(F)(F)F)cc4)c3c2)n1`: 6.04, 6.51 and below 5.00.
As for `CN(C)CCNc1cncc(-c2ccc3[nH]cc(-c4ccc(N)cc4F)c3c2)n1`, the pIC50 was 8.05 in assay [1], 8.52 in assay [5], 5.77 in the assay with MV4-11 and 6.57 in assay [9].
As to `CN(C)CCNc1cncc(-c2ccc3[nH]cc(-c4ccc(C(F)(F)F)c(F)c4)c3c2)n1`, the figures for the pIC50 in assay [1], in assay [5] and in assay [9] were 6.23, 6.59 and 5.10, respectively.
For `CN(C)CCNc1cncc(-c2ccc3[nH]cc(-c4ccc(F)cc4)c3c2)n1`, in that order: 7.09, 7.66 and 5.79.
For `CN(C)CCNc1cncc(-c2ccc3[nH]cc(-c4ccc(-c5ccccc5)cc4)c3c2)n1`, in that order: 6.38, 6.80 and 5.27.
